One data set relates to Plasmopara viticola. Put plainly: Plasmopara test (grapevines)/preventive. The class given is in vivo. Particulars: preventive spray, 10 ppm of active ingredient, evaluated 6 days after inoculation. The procedure: Solvent: 24.5 parts by weight of acetone • 24.5 parts by weight of dimethylacetamide
Emulsifier: 1 part by weight of alkylaryl polyglycol ether
To produce a suitable preparation of active compound, 1 part by weight of active compound is mixed with the stated amounts of solvent and emulsifier, and the concentrate is diluted with water to the desired concentration.
To test for preventive activity, young plants are sprayed with the preparation of active compound at the stated rate of application. After the spray coating has dried on, the plants are inoculated with an aqueous spore suspension of Plasmopara viticola and then remain for 1 day in an incubation cabinet at approximately 20° C. and a relative atmospheric humidity of 100%. The plant is subsequently placed for 4 days in a greenhouse at approximately 21° C. and a relative atmospheric humidity of approximately 90%. The plants are then misted and placed for 1 day in an incubation cabinet.
The test is evaluated 6 days after the inoculation. 0% means an efficacy which corresponds to that of the untreated control, while an efficacy of 100% means that no disease is observed.

The conditions of data set [1]: pH 2.7.
The subject of another data set is Phytophthora infestans. The class given is in vivo. Particulars: tomato plants, spray, 500 ppm, grading 5 days after contamination.

Marks after values point to notes of the source that are not given here.

In turn, `COc1cccc(OCC(=O)Nc2cccc(CO/N=C(/c3ccccc3)c3noc(=O)n3C)n2)c1` [Example 51] registered an Eff. % in the data set with Plasmopara viticola of 91%. Moreover, the LogP in data set [1] was 3.73 [a].

As for `Cn1c(/C(=N\OCc2csc(NC(=O)COc3cccc(F)c3)n2)c2ccccc2)noc1=O` [Example 100], the Eff. % in the data set with Plasmopara viticola is recorded as 74%. In data set [1], the LogP was 3.58 [a].

As to `Cn1c(C(=NOCc2cccc(NCC3CCCCC3)n2)c2ccccc2)noc1=O` [Example 116], the Eff. % in the data set on Plasmopara viticola turned out to be 93%. Also, the LogP in data set [1] is 3.02 [a].

Turning to `Cn1c(/C(=N\OCc2csc(NC(=O)COC3CCCC3)n2)c2ccccc2)noc1=O` [Example 195], in the data set on Plasmopara viticola, the Eff. % is 95%. The LogP in data set [1] is 3.73 [a].

On to `Cn1c(C(=NOCc2cccc(NC(=O)c3ccc(Cl)cc3)n2)c2ccccc2)noc1=O` [Example 245], for which the Eff. % in the data set on Plasmopara viticola was 93%. The log partition coefficient (LogP) in data set [1] was 4.01 [a].

As for `CCCCCC(C)OC(=O)Nc1cccc(CO/N=C(/c2ccccc2)c2noc(=O)n2C)n1` (centres unmarked) [Example 285], the Eff. % with Phytophthora infestans was 88%. Further, the lipophilicity (LogP) in data set [1] is 5.19 [a].

`CC(C)COC(=O)Nc1nc(CO/N=C(/c2ccccc2)c2noc(=O)n2C)cs1` [Example 286] returned an Eff. % in the data set with Phytophthora infestans of 97%. Besides, in data set [1], the LogP is 3.71 [a].

In the data set on Phytophthora infestans, `Cn1c(/C(=N\OCc2cccc(NC(=O)OCCC#N)n2)c2ccccc2)noc1=O` [Example 288] had an Eff. % of 97%. Also, in data set [1], the LogP is 2.78 [a].

The molecule `Cn1c(/C(=N\OCc2csc(NC(=O)c3cccc(Br)c3)n2)c2ccccc2)noc1=O` [Example 289] gave an Eff. % in the data set on Phytophthora infestans of 98%. Moreover, in data set [1], the LogP was 4.04 [a].

In the case of `COc1cccc(C(=NOCc2cccc(NC(=O)OCc3ccccc3)n2)c2noc(=O)n2C)c1` [Example 290], the Eff. % in the data set on Phytophthora infestans was 75%. Further, the lipophilicity (LogP) in data set [1] was 4.04 [a].

With `Cc1ccc(OCC(=O)Nc2cccc(CO/N=C(/c3ccccc3)c3noc(=O)n3C)n2)cc1` [Example 296], in the data set with Plasmopara viticola, the Eff. % turned out to be 74%. Further, in data set [1], the LogP is 4.07 [a].

`Cn1c(/C(=N\OCc2cccc(NC(=O)OCCc3ccccc3)n2)c2cccc(F)c2)noc1=O` [Example 297] showed an Eff. % with Phytophthora infestans of 95%. In data set [1], the LogP is 4.26 [a].

In the data set on Phytophthora infestans, `CCCCCOC(=O)Nc1cccc(CO/N=C(/c2ccccc2)c2noc(=O)n2CC)n1` [Example 300] yielded an Eff. % of 100%. The LogP in data set [1] was 4.72 [a].

Turning to `Cn1c(/C(=N\OCc2cccc(NC(=O)CCc3ccc(F)cc3)n2)c2ccccc2)noc1=O` [Example 301], the Eff. % in the data set on Phytophthora infestans came out at 100%. Further, the LogP in data set [1] was 3.81 [a].

The molecule `CCCCCCCCCC(=O)Nc1cccc(CO/N=C(/c2ccccc2)c2noc(=O)n2C)n1` [Example 303] gave an Eff. % in the data set on Phytophthora infestans of 98%. In addition, the log partition coefficient (LogP) in data set [1] is 5.54 [a].

Consider `C=CC(=O)Nc1cccc(CO/N=C(/c2ccccc2)c2noc(=O)n2C)n1` [Example 304], for which, in the data set on Phytophthora infestans, the Eff. % is listed as 83%. Besides, the lipophilicity (LogP) in data set [1] is 2.77 [a].

With `Cn1c(/C(=N\OCc2cccc(NC(=O)C(F)(F)Oc3ccccc3)n2)c2ccccc2)noc1=O` [Example 307], in the data set with Plasmopara viticola, the Eff. % is 98%. Also, the LogP in data set [1] is 4.08 [a].

Take `Cn1c(/C(=N\OCc2cccc(NC(=O)C3(F)CC3)n2)c2ccccc2)noc1=O` [Example 309]: the Eff. % with Phytophthora infestans is 100%. Further, the LogP in data set [1] is 3.31 [a].

Turning to `COc1ccc(CCOC(=O)Nc2cccc(CO/N=C(/c3ccccc3)c3noc(=O)n3C)n2)cc1` [Example 310], in the data set on Phytophthora infestans, the Eff. % was 70%. Further, the LogP in data set [1] was 4.08 [a].

Turning to `Cn1c(/C(=N\OCc2cccc(NC(=O)COc3ccccc3)n2)c2ccccc2)noc1=O` [Example 313], in the data set on Phytophthora infestans, the Eff. % amounted to 100%. Further, the lipophilicity (LogP) in data set [1] was 3.73 [a].

`CCCCC(C)(C)C(=O)Nc1cccc(CO/N=C(/c2ccccc2)c2noc(=O)n2C)n1` [Example 316] returned an Eff. % in the data set with Plasmopara viticola of 84%. In addition, the LogP in data set [1] was 4.63 [a].

For `Cn1c(/C(=N\OCc2cccc(NC(=O)C3CC4C=CC3C4)n2)c2ccccc2)noc1=O` (centres unmarked) [Example 323], the Eff. % with Phytophthora infestans turned out to be 100%. Further, the LogP in data set [1] was 3.68 [a].

Molecule `CCCC(C)C(=O)Nc1cccc(CO/N=C(/c2cccc(OC)c2)c2noc(=O)n2C)n1` (centres unmarked) [Example 328] came in with an Eff. % with Phytophthora infestans of 75%. Also, in data set [1], the LogP is 3.87 [a].

Regarding `Cn1c(/C(=N\OCc2cccc(NC(=O)c3cccc(Oc4ccccc4)c3)n2)c2ccccc2)noc1=O` [Example 329], the Eff. % in the data set with Phytophthora infestans came to 93%. Further, the LogP in data set [1] was 4.61 [a].

Regarding `Cn1c(/C(=N\OCc2cccc(NC(=O)c3ccccc3I)n2)c2ccccc2)noc1=O` [Example 331], the Eff. % in the data set on Phytophthora infestans was 98%. The LogP in data set [1] was 3.76 [a].

For `Cn1c(/C(=N\OCc2cccc(NC(=O)Cc3ccccc3Br)n2)c2ccccc2)noc1=O` [Example 335], the Eff. % in the data set with Phytophthora infestans was 99%. For the same molecule, in data set [1], the LogP was 3.85 [a].

Take `CCCC(C)COC(=O)Nc1cccc(CO/N=C(/c2ccccc2)c2noc(=O)n2C)n1` (centres unmarked) [Example 337]: the Eff. % in the data set with Phytophthora infestans worked out at 99%. For the same molecule, the LogP in data set [1] is 4.83 [a].

`Cc1ccc(C(=O)Nc2cccc(CO/N=C(/c3ccccc3)c3noc(=O)n3C)n2)o1` [Example 345] gave an Eff. % with Phytophthora infestans of 99%. Also, in data set [1], the LogP was 3.46 [a].

`Cn1c(/C(=N\OCc2cccc(NC(=O)CCc3ccc(Cl)cc3)n2)c2ccccc2)noc1=O` [Example 346] gave an Eff. % in the data set with Phytophthora infestans of 97%. In data set [1], the LogP was 4.17 [a].

Molecule `Cn1c(/C(=N\OCc2cccc(NC(=O)C(F)(F)C(F)(F)C(F)(F)F)n2)c2ccccc2)noc1=O` [Example 348] returned an Eff. % with Phytophthora infestans of 100%. For the same molecule, the log partition coefficient (LogP) in data set [1] is 4.17 [a].

In turn, `CCC(C)COC(=O)Nc1cccc(CO/N=C(/c2ccccc2)c2noc(=O)n2C)n1` (centres unmarked) [Example 350] gave an Eff. % in the data set on Phytophthora infestans of 98%. Moreover, in data set [1], the LogP is 4.44 [a].

In the case of `Cn1c(/C(=N\OCc2cccc(NC(=O)c3ccc(Oc4ccccc4)cc3)n2)c2ccccc2)noc1=O` [Example 357], the Eff. % in the data set on Phytophthora infestans stood at 92%. Also, in data set [1], the LogP is 4.58 [a].

`CCCCC(=O)Nc1cccc(CO/N=C(/c2cccc(OC)c2)c2noc(=O)n2C)n1` [Example 358] gave an Eff. % with Phytophthora infestans of 100%. Further, the LogP in data set [1] is 3.55 [a].

With `CCCCOC(=O)Nc1cccc(CO/N=C(/c2cccc(OC)c2)c2noc(=O)n2C)n1` [Example 361], in the data set on Phytophthora infestans, the Eff. % came out at 90%. The LogP in data set [1] was 4.06 [a].

In the data set on Phytophthora infestans, `COc1cccc(/C(=N/OCc2cccc(NC(=O)CC(C)C)n2)c2noc(=O)n2C)c1` [Example 362] had an Eff. % of 71%. Also, the LogP in data set [1] was 3.46 [a].

`C=CCCOC(=O)Nc1cccc(CO/N=C(/c2ccccc2)c2noc(=O)n2C)n1` [Example 363] showed an Eff. % in the data set on Phytophthora infestans of 99%. Also, in data set [1], the LogP is 3.71 [a].

For the molecule `CC(=O)OC(C)(C)C(=O)Nc1cccc(CO/N=C(/c2ccccc2)c2noc(=O)n2C)n1` [Example 367], the Eff. % in the data set with Phytophthora infestans came out at 100%. Besides, in data set [1], the LogP was 3.15 [a].

In the data set with Phytophthora infestans, `Cc1ccc(CCOC(=O)Nc2cccc(CO/N=C(/c3ccccc3)c3noc(=O)n3C)n2)cc1` [Example 369] returned an Eff. % of 70%. The LogP in data set [1] is 4.53 [a].

Molecule `Cn1c(/C(=N\OCc2cccc(NC(=O)OCC(C)(C)C)n2)c2ccccc2)noc1=O` [Example 372] displayed an Eff. % in the data set with Phytophthora infestans of 100%. The lipophilicity (LogP) in data set [1] is 4.36 [a].

Take `Cn1c(/C(=N\OCc2cccc(NC(=O)CCCCCBr)n2)c2ccccc2)noc1=O` [Example 374]: in the data set on Phytophthora infestans, the Eff. % was determined as 100%. The log partition coefficient (LogP) in data set [1] was 3.85 [a].

Turning to `Cc1ccc(CC(=O)Nc2cccc(CO/N=C(/c3ccccc3)c3noc(=O)n3C)n2)cc1` [Example 375], in the data set with Phytophthora infestans, the Eff. % came to 97%. Moreover, the lipophilicity (LogP) in data set [1] was 3.85 [a].

In the data set with Phytophthora infestans, `Cn1c(/C(=N\OCc2cccc(NC(=O)CCCc3ccccc3)n2)c2ccccc2)noc1=O` [Example 377] came in with an Eff. % of 99%. The LogP in data set [1] was 4.04 [a].

On to `Cn1c(/C(=N\OCc2cccc(NC(=O)Cc3ccc4ccccc4c3)n2)c2ccccc2)noc1=O` [Example 381], for which, in the data set on Phytophthora infestans, the Eff. % amounted to 75%. In addition, the log partition coefficient (LogP) in data set [1] was 4.12 [a].

Regarding `Cc1cccc(/C(=N/OCc2cccc(NC(=O)C(C)(C)C)n2)c2noc(=O)n2C)c1` [Example 387], the Eff. % with Phytophthora infestans amounted to 100%. Besides, the LogP in data set [1] is 3.85 [a].

Regarding `Cn1c(/C(=N\OCc2cccc(NC(=O)C3CCCC3)n2)c2ccccc2)noc1=O` [Example 388], the Eff. % in the data set on Phytophthora infestans is listed as 100%. In addition, the LogP in data set [1] was 3.62 [a].

In the data set on Phytophthora infestans, `C=CCCOC(=O)Nc1nc(CO/N=C(/c2ccccc2)c2noc(=O)n2C)cs1` [Example 394] yielded an Eff. % of 90%. Besides, the LogP in data set [1] was 3.44 [a].

Take `COc1ccc(C(=NOCc2cccc(NC(=O)OC(C)(C)C)n2)c2noc(=O)n2C)cc1` [Example 396]: in the data set on Phytophthora infestans, the Eff. % was 73%. Further, the LogP in data set [1] was 3.96 [a].

Consider `CCn1c(/C(=N\OCc2cccc(NC(=O)CCc3ccccc3)n2)c2ccccc2)noc1=O` [Example 403], for which the Eff. % in the data set on Phytophthora infestans is recorded as 100%. The LogP in data set [1] was 4.01 [a].

As to `COc1cccc(C(=NOCc2cccc(NC(=O)C(C)(C)C)n2)c2noc(=O)n2C)c1` [Example 407], the Eff. % with Phytophthora infestans was 95%. Besides, the log partition coefficient (LogP) in data set [1] was 3.55 [a].
